Test results from patent publication US8551541B2, “Disinfectant making air fresh and preparation and method and use thereof” (priority 2009, dated 2013).

Tested on: influenza A virus FM1 strain
Assay type: cell-based

NC(=O)c1ncn([C@@H]2O[C@H](CO)[C@@H](O)[C@H]2O)n1 [Ribavirin]
inhibitory effect on FM1 (in words): markedly inhibitory effect
